Reference: patent US20220347075A1, “PEPTIDE BASED COSMETIC OR DERMATOLOGICAL TREATMENT OF THE SKIN AND ITS APPENDAGES” (Sederma, priority 2019, published 2022)
Residues, ends and D or L forms follow the SMILES beside them. *: point of attachment. Palmitoyl = CCCCCCCCCCCCCCCC(=O)*

Columns and labels:
Type in all cases: cell-based
[1] = tested on: normal human keratinocytes (NHK); test: LC-MS/MS protein study on NHK culture; conditions: 5 ppm; 7 days; p < 0.01
Source text: Liquid Chromatography/Mass Spectrometry (LC-MS/MS) Study on NHK Culture
Principle: the same culture protocol as for the DNA-Array is used but with a longer culture time (7 days) because the protein productions take longer to be able to be detected with this method in LC-MS/MS. The peptide concentration applied to the cells is 5 ppm (vs. control case). The culture medium of the NHK (n=3) is changed every 3 days. At the end of this contact, the cells are lysed for extracting the proteins and to analyze them in the form of ground material by a method combining the action of a protease on the ground material, the separation of the fragments by liquid chromatography coupled with mass spectrometry, and then the identification and concentration of pre-existing proteins according to the nature and quantity of the fragments obtained (LC-MS/MS). To carry out LC-MS/MS analysis on equivalent amounts of proteins, the protein concentration is measured on the ground material. The results are expressed as an expression ratio between the treated case and the control case. A ratio greater than 1.5 is considered as an increase in protein production (+50% compared to the control). A study of variances and a Student's t test is carried out for judging the significance of the results.

[2] = tested on: normal human keratinocytes (NHK); test: Immunocytofluorescence labeling of involucrin, loricrin, filaggrin on NHK culture; conditions: 5 ppm, 7 days, immunofluorescence
Procedure: Study by Immunocytofluorescence Labeling on KHN Culture
Principle: confluent NHKs (n=3) are cultured as above for 7 days in the presence or absence (control) of the peptide according to the invention then the cell layers are fixed and labels by immunocytochemistry are carried out using antibodies directed against proteins characteristic of the maturation of the epidermis: involucrine, loricrin and filaggrin. Photos are captured using a fluorescence microscope and images analyzed using appropriate software. The results are compared with those of the control. The number of cells on the mats is evaluated by the Hoechst method (DNA staining), to reduce the fluorescence value to the number of cells. A variance study and a Student's t test are carried to judge the significance of the results.
1.1.1. Induction of the formation of involucrin, loricrin and filaggrin in NEM (by immunofluorescence)/effect of 5 ppm of the peptide according to the invention: […]

[3] = tested on: normal human keratinocytes (NHK); test: DNA microarray (DNA-Array) gene expression on NHK culture; conditions: 7 ppm
Procedure: Study Using DNA Microarray Technology (DNA-Array) on NHK Culture
Principle: the peptide according to the invention (7 ppm) is brought into contact for 24 or 48 hours with confluent NHKs (vs. control case). Then the NHK mats are rinsed, and the cells are crushed to extract their mRNA. These mRNAs are then converted into DNA sequences which are analyzed after depositing on DNA chips and amplification by a method like QRT-PCR. The mRNA variations due to the peptide are compared to the control case (peptide solvent). The results are expressed as an expression ratio between the treated case and the control case. A ratio greater than 1.5 is as an induction of gene expression (+50% compared to the control).

[4] = tested on: normal human keratinocytes (NHK); test: Molecular biology study (qRT-PCR) on NHK culture; conditions: 5 ppm, 24 hours, RT-PCR
Procedure: Molecular Biology Study on NHK Culture
Principle: in this test, confluent keratinocytes are brought into contact with the peptide according to the invention for 24 hours. The cells are then frozen to dryness and their RNAs are extracted, converted into DNA, then analyzed by qRT-PCR (“Quantitative real time reverse transcription polymerase chain reaction”). The results are expressed as an expression ratio between the treated case and the control case. A ratio greater than 1.5 is as an induction of gene expression (+50% compared to the control). A study of variances and a Student's t test are carried out for judging the significance of the results (n=4 for each condition).

Propionibacterium acnes = Propionibacterium acnes growth inhibition test (OD 600 nm); conditions: for Time necessary to reach an OD of 1 (P. acnes growth): control 28 hours, anaerobic, 37° C.
Procedure: Propionibacterium acnes Growth Inhibition Test Principle: suspensions of Propionibacterium acnes of equivalent density are cultured in a suitable medium in the presence (test case) or absence (control case) of the peptide according to the invention, in anaerobic condition, at 37° C. Samples are taken at regular intervals to measure the OD at 600 nm for following the growth of the bacterial population over time. The growth curve of each culture is thus established. Growth of the bacterium Propionibacterium acnes: time necessary to reach an OD of 1 in the control case and in the presence of the peptide according to the invention (N=2 independent experiments; n=2 cultures per case): […]

[5] = tested on: normal human keratinocytes (NHK) exposed to UVB; test: Immunoenzymatic assay (ELISA) of pro-inflammatory mediators of NHK exposed to UVB
Procedure: Study by Immune Enzymatic Assay on NHK Culture
Principle: NHKs in culture and at confluence are brought into contact with the peptide according to the invention (or its solvent) for 24 hours in a medium allowing their survival. Then the cell layers are irradiated with UVB in a physiological buffer and again brought into contact with the products to be tested for 24 hours. At the end of this incubation, the culture media are assayed by ELISA to know the amounts of pro-inflammatory mediators produced by these cells in response to irradiation. The results are compared to the control. A cell respiration test is conducted on the fixed mat to assess the number of cells and standardize the results. A study of variances and a Student's t test are carried out for judging the significance of the results.
To test the active ingredients, keratinocytes were placed in culture under light stress conditions (application of UVB radiation) to mimic an experimental skin micro-inflammation. In this situation, a significant decrease in their secretome of inflammation mediators will be interpreted in the sense of a restorative and protective action of the skin.
Variation compared to the control of the secretome of pro-inflammatory mediators by NHKs exposed to UVB (by immunoenzymatic assay)/effect of the peptide according to the invention at 4, 6 and 8 ppm: […]

- GSK3B (glycogen synthase kinase 3 beta) gene expression, variation vs control ([3]; 24 h contact): ×1.64
- GSKA (glycogene synthase kinase 3 alpha) gene expression, variation vs control ([3]; 24 h contact): ×1.57
- Transglutaminase 1 gene expression, variation vs control ([4]; p < 0.05): ×1.82; p < 0.05
Compound: CCCCCCCCCCCCCCCC(=O)N[C@@H](CCCCN)C(=O)N[C@H](C(=O)N[C@H](C(=O)N[C@@H](CCCCN)C(=O)N[C@@H](CO)C(=O)O)[C@@H](C)O)[C@@H](C)O [Pal-KTTKS, palmitoyl-lysyl-threonyl-threonyl-lysyl-serine] (Palmitoyl-KTTKS-OH)
- ADGRG1 protein, variation vs control [1]: ×1.63;
- ASPRV1 protein, variation vs control [1]: ×2.35; p < 0.01
- CALM5 protein, variation vs control [1]: ×1.61; p < 0.01
- CRYAB (alpha-crystallin B) protein, variation vs control [1]: ×2.24; p < 0.01
- FLG (filaggrin) protein, variation vs control [1]: ×2.66; p < 0.01
- KRT1 protein, variation vs control [1]: ×1.58; p < 0.01
- KRT6B protein, variation vs control [1]: ×2.07; p < 0.01
- KRT9 protein, variation vs control [1]: ×1.54; p < 0.01
- KRT10 protein, variation vs control [1]: ×1.75; p < 0.01
- KRT15 protein, variation vs control [1]: ×2.02; p < 0.01
- LOR (loricrin) protein, variation vs control [1]: ×2.92; p < 0.01
- SPINK5 protein, variation vs control [1]: ×1.58; p < 0.01
- TCHH (trichohyalin) protein, variation vs control [1]: ×1.54; p < 0.01
- THBS1 protein, variation vs control [1]: ×1.98;
- Filaggrin: % of variation/control ([2]; p < 0.01): +310%; p < 0.01
- Loricrin: % of variation/control ([2]; p < 0.01): +128%; p < 0.01
- Involucrin: % of variation/control ([2]; p < 0.05): +1057%; p < 0.05
- ABHD5 gene expression, variation vs control ([3]; 24 h contact): ×2.10
- ADGRG1 gene expression, variation vs control ([3]; 24 h contact): ×1.92
- ALOX12B gene expression, variation vs control ([3]; 24 h contact): ×2.48
- ALOXE3 gene expression, variation vs control ([3]; 24 h contact): ×2.92
- ASPRV1 gene expression, variation vs control ([3]; 24 h contact): ×3.35
- BMP2 gene expression, variation vs control ([3]; 24 h contact): ×3.63
- BMP6 gene expression, variation vs control ([3]; 24 h contact): ×13
- ELOVL4 gene expression, variation vs control ([3]; 24 h contact): ×5.41
- FN1 gene expression, variation vs control ([3]; 24 h contact): ×3.38
- IL37 gene expression, variation vs control ([3]; 24 h contact): ×3.60
- LCE2C gene expression, variation vs control ([3]; 24 h contact): ×26.30
- LCE3A gene expression, variation vs control ([3]; 24 h contact): ×65.26
- LCE3B gene expression, variation vs control ([3]; 24 h contact): ×123.00
- LCE3D gene expression, variation vs control ([3]; 24 h contact): ×110.46
- LCE3E gene expression, variation vs control ([3]; 24 h contact): ×135.99
- LOR gene expression, variation vs control ([3]; 24 h contact): ×1.86
- PPARD gene expression, variation vs control ([3]; 24 h contact): ×1.97
- PRSS8 gene expression, variation vs control ([3]; 24 h contact): ×3.72
- SPRR2A gene expression, variation vs control ([3]; 24 h contact): ×8.71
- SPRR2B gene expression, variation vs control ([3]; 24 h contact): ×58.44
- SPRR2C gene expression, variation vs control ([3]; 24 h contact): ×6.30
- SPRR2D gene expression, variation vs control ([3]; 24 h contact): ×7.87
- SPRR2E gene expression, variation vs control ([3]; 24 h contact): ×6.47
- SPRR2F gene expression, variation vs control ([3]; 24 h contact): ×6.00
- SPRR2G gene expression, variation vs control ([3]; 24 h contact): ×13.43
- SPRR3 gene expression, variation vs control ([3]; 24 h contact): ×1.90
- SPRR4 gene expression, variation vs control ([3]; 24 h contact): ×2.95
- TGM1 gene expression, variation vs control ([3]; 24 h contact): ×1.70
- CDSN gene expression, variation vs control ([3]; 24 hours of contact): ×3.36
- CGNL1 gene expression, variation vs control ([3]; 24 hours of contact): ×3.37
- CLDN4 gene expression, variation vs control ([3]; 24 hours of contact): ×5.16
- CLDN7 gene expression, variation vs control ([3]; 24 hours of contact): ×4.47
- CLDN12 gene expression, variation vs control ([3]; 24 hours of contact): ×2.68
- CLDN15 gene expression, variation vs control ([3]; 24 hours of contact): ×4.80
- CLDN17 gene expression, variation vs control ([3]; 24 hours of contact): ×113.20
- CLDN23 gene expression, variation vs control ([3]; 24 hours of contact): ×3.69
- KLK14 gene expression, variation vs control ([3]; 24 hours of contact): ×1.79
- OCLN gene expression, variation vs control ([3]; 24 hours of contact): ×5.91
- TJP1 gene expression, variation vs control ([3]; 24 hours of contact): ×2.15
- CERS1 gene expression, variation vs control ([3]; 48 h contact): ×3.48
- CRNN gene expression, variation vs control ([3]; 48 h contact): ×4.73
- TCHH gene expression, variation vs control ([3]; 48 h contact): ×4.87
- SOD2 gene expression, variation vs control ([3]; 48 hours contact): ×2.93
- CRYAB (alpha-crystallin B) gene expression, variation vs control ([4]; p < 0.01): ×3.47; p < 0.01
- Involucrine gene expression, variation vs control ([4]; p < 0.01): ×1.64; p < 0.01
- Time necessary to reach an OD of 1 (P. acnes growth) (Propionibacterium acnes; 6 ppm of peptide): 42 h
- Growth of Propionibacterium acnes (result in words) (Propionibacterium acnes; 6 to 12 ppm): strongly and dose-dependently inhibits the growth
- Time necessary to reach an OD of 1 (P. acnes growth) (Propionibacterium acnes; 9 ppm of peptide): 54 h
- Time necessary to reach an OD of 1 (P. acnes growth) (Propionibacterium acnes; 12 ppm of peptide): 85.5 h
- IL6 secretion, variation vs control ([5]; 4 ppm, ns): −13%
- PGE2 secretion, variation vs control ([5]; 4 ppm, p < 0.01): −41%
- IL6 secretion, variation vs control ([5]; 6 ppm, p < 0.01): −68% (p < 0.01)
- PGE2 secretion, variation vs control ([5]; 6 ppm, p < 0.01): −69% (p < 0.01)
- IL6 secretion, variation vs control ([5]; 8 ppm, p < 0.01): −84% (p < 0.01)
- PGE2 secretion, variation vs control ([5]; 8 ppm, p < 0.01): −84% (p < 0.01)
